Earlier results on one molecule are cited in US20050003017A1, “Hypotensive and hypertensive properties of renomedullar extracts” (priority 2000, published 2005).

SMILES strings stand for the structures.

For the series the following is noted: low stability; Svensson et al.

`CCCCC[C@H](O)/C=C/[C@H]1O[C@H]2C[C@H](O2)[C@@H]1C/C=C\CCCC(=O)O` [thromboxan A2]: the half life entry is “about 30 seconds”.
